Test results: patent publication US20150031655A1, “COMBINATION OF LIVER X RECEPTOR MODULATOR AND ESTROGEN RECEPTOR MODULATOR FOR THE TREATMENT OF AGE-RELATED DISEASES” (UNIVERSITY OF NORTH DAKOTA, priority 2011, published 2015)

Columns and labels:
[1] = molecular target: T1, LXRα (Homo sapiens, UniProt Q13133); experiment: ChIP, LXRα binding to the LXRE in the α-synuclein promoter; assay type: cell-based; settings: SH-SY5Y; for LXRα binding to the LXRE on the α-synuclein promoter: treatment alone vs control
T1 construct: endogenous in cells; host or cells: SH-SY5Y human neuroblastoma cells
T1 sequence (Q13133 1-447): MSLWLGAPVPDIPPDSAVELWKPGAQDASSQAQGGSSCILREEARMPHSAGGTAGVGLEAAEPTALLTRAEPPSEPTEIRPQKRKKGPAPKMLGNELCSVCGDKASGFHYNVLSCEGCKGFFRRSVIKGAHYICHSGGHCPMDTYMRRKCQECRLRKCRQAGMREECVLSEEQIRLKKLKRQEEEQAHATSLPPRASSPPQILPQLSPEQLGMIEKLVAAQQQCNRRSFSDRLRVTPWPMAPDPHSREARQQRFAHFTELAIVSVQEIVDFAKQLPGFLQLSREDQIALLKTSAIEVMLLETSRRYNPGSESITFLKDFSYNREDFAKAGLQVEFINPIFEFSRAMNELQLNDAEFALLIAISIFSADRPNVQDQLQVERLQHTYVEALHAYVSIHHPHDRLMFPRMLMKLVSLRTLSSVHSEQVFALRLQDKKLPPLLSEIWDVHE
Protocol: (§1) Human neuroblastoma SH-SY5Y cells were grown in DMEM/F12 medium containing 10% fetal bovine serum (FBS) and 1% antibiotic/antimycotic mix. Cells were maintained at 37° C. in a saturated humidity atmosphere containing 95% air and 5% CO2.
ChIP analysis was performed to evaluate the extent of ERα/ERβ and LXRα/LXRβ binding to the DNA elements in the TH promoter and α-synuclein promoter regions respectively using “SimpleChIP™ Enzymatic Chromatic IP kit” from Cell Signaling (Boston, Mass.).
Briefly, cells from each treatment group (3×10^6 cells) were washed with PBS, trypsinized, centrifuged at 5000 g. The pellet containing the cells was further washed with PBS and cross-linked using 37% formaldehyde for 15 min followed by the addition of glycine solution to cease the cross-linking reaction.
The cells were washed with 4× volumes of 1×PBS and centrifuged at ˜220 g for 5 min. The pellet was resuspended and incubated for 10 min in 5 ml of tissue lysis buffer containing DTT and protease and phosphatase inhibitors. The subsequent steps to isolate the cross-linked chromatin were performed according to the manufacturer's protocol.
The cross-linked chromatin from each sample was apportioned into four equal parts. One quarter of the cross-linked chromatin was set aside as “input.” One quarter of the cross-linked chromatin from each sample was incubated with 5 μg of anti-ERα mouse antibody (Cell Signaling, Boston, Mass.) and 5 μg of anti-ERβ rabbit antibody (Upstate, Bedford, Mass.), or 5 μg of anti-LXRα rabbit antibody (Abcam, Cambridge, Mass.) and 5 μg of anti-LXRβ mouse antibody (Abcam, Cambridge, Mass.), while the remaining one quarter of the cross-linked chromatin from each sample was incubated with 5 μg of normal Rabbit IgG to serve as negative control. […]
The crude DNA extract was eluted and then washed several times with wash buffer containing ethanol (provided with the kit) followed by purification with the use of DNA spin columns provided by the manufacturer. […] The DNA fragment size was determined by electrophoresis on a 1.2% agarose FlashGel^R system (Lonza, Rockland, Me.).
The relative abundance of the ERα or ERβ antibody precipitated chromatin containing the ERE in the TH promoter region and LXRα or LXRβ antibody precipitated chromatin containing the LXRE in the α-synuclein promoter region was determined by qPCR using an iQ SYBR Green Supermix kit following the manufacturer's instructions (BioRad, Hercules, Calif.) and sequence specific primers (See Table 1 above). […] The fold enrichment of the ERE in the TH promoter region and LXRE in the α-synuclein promoter region was calculated using the ΔΔCt method (K. J. Livak et al., Methods, 25, 402 (2001)) which normalizes ChIP Ct values of each sample to the % input and background.

[2] = test system: α-synuclein mRNA; experiment: Real time RT-PCR of α-synuclein mRNA in SH-SY5Y cells; assay type: cell-based, human; settings: for increase in α-synuclein mRNA expression: 24 h; for 27-OHC-induced increase in α-synuclein mRNA: co-treatment with 10 μM 27-OHC
Protocol: as §1
Total RNA was isolated and extracted from treated cells using the 5 prime “PerfectPure RNA tissue kit” (5 Prime, Inc., Gaithersburg, Md.). RNA estimation was performed using “Quant-iT RNA Assay Kit” using a Qubit fluorometer according to the manufacturer's protocol (Invitrogen, Carlsbad, Calif.). cDNA was synthesized by reverse transcribing 1 μg of extracted RNA using an “iScript cDNA synthesis kit” (BioRad, Hercules, Calif.). The oligomeric primers (Sigma, St Louis, Mo.) used to amplify the TH mRNA and α-synuclein mRNA are enumerated in Table 1. The cDNA amplification was performed using an iQ SYBR Green Supermix kit following the manufacturer's instructions (BioRad, Hercules, Calif.). The amplification was performed using an iCycler iQ Multicolor Real Time PCR Detection System (BioRad, Hercules, Calif.). The expression of specific TH and α-synuclein transcripts amplified were normalized to the expression of glyceraldehyde-3-phosphate dehydrogenase (GAPDH).

[3] = test system: LXRα/β; experiment: EMSA, binding of LXRα/β to probe for the LXRE in the α-synuclein promoter; assay type: cell-based, human; settings: for binding of LXRα/β to the exogenous DNA sequence containing the LXRE: nuclear extracts of treated SH-SY5Y, treatment alone vs control
[4] = test system: ARPE-19 cells; experiment: ROS levels in ARPE-19 cells; assay type: cell-based; settings: ARPE-19, 24 h

Row | Compound | LXRα binding to the LXRE in the α-synuclein promoter ([1]; in combination with 27-OHC) | LXRα binding to the LXRE on the α-synuclein promoter [1] | increase in α-synuclein mRNA expression ([2]; treatment alone vs control) [fold] | 27-OHC-induced increase in α-synuclein mRNA [2] | binding of LXRα/β to the exogenous DNA sequence containing the LXRE [3] | reactive oxygen species (ROS) levels ([4]; 10 μM, alone vs control) | 27-OHC-induced increase in LXRα/β binding to the LXRE consensus motif ([3]; co-treatment with 27-OHC) | α-synuclein mRNA levels ([2]; treatment alone vs control) | 27-OHC-induced increase in ROS levels ([4]; co-treatment with 27-OHC, all at 10 μM)
1 | Cl.O=C(O)Cc1cccc(OCCCN(Cc2cccc(C(F)(F)F)c2Cl)CC(c2ccccc2)c2ccccc2)c1 [GW3965, 3-[3-[N-(2-Chloro-3-trifluoromethylbenzyl)-(2,2-diphenylethyl)amino]propyloxy]phenylacetic acid hydrochloride] | did not elicit any increase | did not elicit any increase | 10 | not mRNA levels | – | – | – | – | –
2 | C[C@@H](CO)CCC[C@@H](C)[C@H]1CC[C@H]2[C@@H]3CC=C4C[C@@H](O)CC[C@]4(C)[C@H]3CC[C@]12C [27-OHC, 27-hydroxycholesterol] | – | no significant augmentation | 9 | – | increases | increases | – | – | –
3 | CC(C)CCC[C@@H](C)[C@H]1CC[C@H]2[C@@H]3C[C@@H]4O[C@@]45C[C@@H](OS(=O)(=O)O)CC[C@]5(C)[C@H]3CC[C@]12C [ECHS, 5α,6α-epoxycholesterol-3-sulfate] | – | did not significantly attenuate | – | marked attenuation | decreased | – | mitigates | no effect | reduced
